Results reported in US20230172831A1, “COSMETIC” (SHIN-ETSU CHEMICAL CO., LTD., priority 2020, published 2023).
Where two headings read alike, the source gives them in different places.

Columns and labels:
[1] = known value given for comparison; cited from earlier work
[2] = Solubility of oily component solid at 25° C. and crystallization test (stearyl alcohol); type: physicochemical; set-up: key to dissolution state: excellent: “Excellent” indicates uniform dissolution; “good” indicates dispersion; “poor” indicates separation; conditions: for average penetration score: Stearyl alcohol:silicone 1:9, solidified at 25° C. for 2 days, 1/4 cone, after 5 seconds, average of five, larger value means softer; for dissolution state: Stearyl alcohol:silicone mass ratio 1:9, heated at 105° C. for 20 minutes, visual observation
Protocol: (§1) Oily components being solid at 25° C. and silicones weighed at a mass ratio of 1:9 were heated at 105° C. for 20 minutes to observe the dissolution state. Then, each heated mixture solution was placed in an aluminum cup, allowed to stand at 25° C. for 2 days, and solidified. The penetration score of the solid was measured with a rheometer. The dissolution states according to the visual observation during the heating were shown as follows. “Excellent” indicates uniform dissolution, “good” indicates dispersion, and “poor” indicates separation.
(§2) Moreover, in the rheometer measurement, an automatic cone-penetration measurement test apparatus RPM-101 (manufactured by RIGOSHA CO., LTD.) was used, a ¼ cone was set, and a penetration score after 5 seconds was measured five times. […] A larger value means a softer material.

[3] = Solubility of oily component solid at 25° C. and crystallization test (polyethylene); type: physicochemical; set-up: key to dissolution state: excellent: “Excellent” indicates uniform dissolution; “good” indicates dispersion; “poor” indicates separation; conditions: for average penetration score: Polyethylene:silicone 1:9, solidified at 25° C. for 2 days, 1/4 cone, after 5 seconds, average of five, larger value means softer; for dissolution state: Polyethylene:silicone mass ratio 1:9, heated at 105° C. for 20 minutes, visual observation
Protocol: as §1, §2

[4] = Solubility test of ethylhexyl methoxycinnamate in silicones; type: physicochemical; set-up: key to dissolution state: “good” indicates dissolution; “poor” indicates separation; conditions: for dissolution state: shaken 24 hours, observed after 12 days at room temperature
Protocol: Ethylhexyl methoxycinnamate (sometimes referred to as OMC) and each silicone (sometimes referred to as Sx) weighed at a mass ratio shown in Table 1 were shaken and mixed at room temperature for 24 hours. After 12 days at room temperature, the dissolution state was observed. For each dissolution state, “good” indicates dissolution, and “poor” indicates separation.

[5] = Viscosity (kinematic viscosity, Ostwald viscometer); type: physicochemical
Protocol: Further, since the viscosity of the organosiloxane in the present invention is less than 5 mm^2/s (25° C.), favorable applicability and spreadability are sensed in the same manner as in cases of using decamethylcyclopentasiloxane having a viscosity of 4 mm^2/s (25° C.), or the like. Additionally, the feeling on use is favorable without provoking considerable sticky feeling. If the viscosity is 5 mm^2/s (25° C.) or higher, this causes poor spreading, sticky feeling is provoked, and the feeling on use is poor. Note that the viscosity (kinematic viscosity) values are measured using an Ostwald viscometer.
(§3) A 1-L four-necked flask was charged with 282.6 g of 1,1,1,3,5,7,7,7-octamethyltetrasiloxane and 1.4 mg of chloroplatinic acid. An ethylene gas was blown into the mixture under stirring, and a hydrosilylation reaction took place while the temperature was held at […]. The reaction was monitored by gas chromatography. When it was observed that the proportion of a target reached 95% or more, the reaction was terminated. Distillation under reduced pressure (120° C., 10 mmHg) was performed to obtain 3,5-diethyl-1,1,1,3,5,7,7,7-octamethyltetrasiloxane as the target. The boiling point was 227° C. and the viscosity was 2.2 mm^2/s.

[6] = type: physicochemical
Protocol: as §3

Molecule | boiling point [1] [°C] | average penetration score [2] | average penetration score [3] | dissolution state ([4]; Ratio of OMC:Sx 1:1 (mass)) | dissolution state [2] | dissolution state [3] | dissolution state ([4]; Ratio of OMC:Sx 4:6 (mass)) | Dissolution of ethylhexyl methoxycinnamate compared with other silicones ([4]; versus KF-96L-1cs, KF-96L-1.5cs, KF-96L-2cs, TMF-1.5, KF-995, D6) | viscosity [5] [mm^2/s] | boiling point [6] [°C]
C[Si]1(C)O[Si](C)(C)O[Si](C)(C)O[Si](C)(C)O[Si](C)(C)O[Si](C)(C)O1 [Example D6, dodecamethylhexasiloxane] | 245 | 31.5 | 21.0 |  |  |  |  |  |  | 
undecamethylpentasiloxane [KF-96L-2cs] |  | 34.6 | 18.6 | poor | excellent | Poor |  |  |  | 
CC[Si](C)(O[Si](C)(C)C)O[Si](C)(CC)O[Si](C)(C)C (centres unmarked) [Sx of Production Example 1, 3,5-Diethyl-1,1,1,3,5,7,7,7-octamethyltetrasiloxane] |  | 49.5 | 33.7 | good | excellent | excellent | good | dissolved ethylhexyl methoxycinnamate to higher extent | 2.2 | 227
C[Si](C)(C)O[Si](C)(C)O[Si](C)(C)C [KF-96L-1cs, octamethyltrisiloxane] |  | 31.7 | 30.7 | poor | excellent | good |  |  |  | 
C[Si]1(C)O[Si](C)(C)O[Si](C)(C)O[Si](C)(C)O[Si](C)(C)O1 [D5:KF-995, decamethylpentasiloxane] | 210 | 34.4 | 22.4 |  |  |  |  |  |  | 
C[Si](C)(C)O[Si](C)(C)O[Si](C)(C)O[Si](C)(C)C [KF-96L-1.5cs, decamethyltetrasiloxane] |  |  |  | poor |  |  |  |  |  | 
